Laboratory results reported in US20160251403A1, “PEPTIDE COMBINATIONS AND USES THEREOF IN TREATING DUST MITE ALLERGY” (ALK-ABELLO A/S, priority 2013, published 2016).
No end group written: not given here.

Key:
[1] = Solubility of peptides in aqueous solutions at different pH (visual inspection, OD, HPLC); format: physicochemical
How it was run: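 Peptides at about 0.25 mM or 1 mM final in water, pH 2 HCl, or pH 5, 7 or 9 buffers with 140 mM NaCl, optionally with about 20% DMSO. Turbidity and particles checked visually before and after centrifugation and by OD. RP-HPLC peak height or area was compared with peptide dissolved in acetonitrile or DMSO.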

[2] = molecular target: DRB1_0101 (Homo sapiens, UniProt P01903+P01911, A100R/D57E/F55L/F60I/F76Y/I96L/L162R/M171V/P40L/Q125E/R42F/V115G/Y59C); assay: Competitive MHC class II binding assay, DRB1_0101;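 further: competition against a radiolabeled probe peptide (0.1–1 nM) for purified HLA class II protein over 2–4 days, bound counts read after antibody capture, six competitor levels across 100,000-fold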
[3] = molecular target: DRB1_0701 (Homo sapiens, UniProt P01903+P01911, A100R/A102G/A103Q/D57E/D86V/E43K/F76Y/K127E/L162R/M171V/P40G/Q125H/Q99D/R33Q/R42Y/R54Q/S133A/S66F/T210M/V115G/Y107V/Y59L/Y89S); assay: Competitive MHC class II binding assay, DRB1_0701;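 further: displacement of a radiolabeled reference peptide from purified HLA class II protein, with complex-bound radioactivity counted after 2–4 days of incubation and six concentrations spanning a 100,000-fold range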
[4] = molecular target: DRB3_0202 (Homo sapiens, UniProt P01903+P79483, A212P/D57E/F66Y/L67A/R103Q/R218S/R40L/S89Y/T80R/V86D/Y55F/Y59H); assay: Competitive MHC class II binding assay, DRB3_0202
[5] = molecular target: T1, DPA10103-DPB10301 (Homo sapiens, UniProt P04440+P20036, A65V/A84D/A85E/E86D/F38Y/G113D/G114E/G40L/I94L/L37V/M105V/M116V/P115A/R125K/T199I); assay: Competitive MHC class II binding assay, DPA10103-DPB10301
T1 sequence (P20036 29-260): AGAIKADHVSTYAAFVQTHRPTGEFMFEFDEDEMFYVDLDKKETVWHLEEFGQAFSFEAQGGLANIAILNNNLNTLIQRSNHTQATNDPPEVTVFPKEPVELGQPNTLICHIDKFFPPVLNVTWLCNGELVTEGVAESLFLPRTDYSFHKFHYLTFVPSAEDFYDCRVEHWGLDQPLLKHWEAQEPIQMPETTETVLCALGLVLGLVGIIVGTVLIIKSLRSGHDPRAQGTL
T1 sequence (P04440 30-258 L37V/F38Y/G40L/A65V/A84D/A85E/E86D/I94L/M105V/G113D/G114E/P115A/M116V/R125K/T199I/V234M): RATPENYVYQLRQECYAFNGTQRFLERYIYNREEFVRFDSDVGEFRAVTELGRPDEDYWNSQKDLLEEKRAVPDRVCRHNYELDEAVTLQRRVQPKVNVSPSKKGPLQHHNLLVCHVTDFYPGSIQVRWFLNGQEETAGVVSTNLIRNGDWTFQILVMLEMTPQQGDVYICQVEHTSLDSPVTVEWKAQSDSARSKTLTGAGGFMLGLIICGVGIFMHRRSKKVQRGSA

[6] = molecular target: DRB1_0405 (Homo sapiens, UniProt P01903+P01911, A100R/A169T/D86S/F76Y/I96L/K127E/L162R/M171V/N62H/P40V/Q125Y/R42H/S133A/S149N/S66Y/V115G/V209L/W38E); assay: Competitive MHC class II binding assay, DRB1_0405
[7] = molecular target: DRB1_1501 (Homo sapiens, UniProt P01903+P01911); assay: Competitive MHC class II binding assay, DRB1_1501
[8] = molecular target: DRB4_0101 (Homo sapiens, UniProt P01903+P13762, G164S); assay: Competitive MHC class II binding assay, DRB4_0101
[9] = test system: DQA10401-DQB10402; assay: Competitive MHC class II binding assay, DQA10401-DQB10402; settings: for IC50: read-out: HLA-DQA10401-DQB10402, positive binding at cutoff 1000 nM

Compound	Solubility at pH 7 ([1]; Table 11a, evaluated by visual inspection)	IC50 [2]	IC50 [3]	IC50 [4]	IC50 [5]	IC50 [6]	IC50 [7]	binding to HLA Class II allele DRB3_0202 ([4]; as shown in Table 16a)	IC50 [8]	binding to HLA Class II allele DQA10401-DQB10402 ([9]; as shown in Table 16a)	IC50 [9]	Solubility at pH 7 (visual inspection) [1]
LVKGQQYDIKYTWNVPKIAPK [pep-131]	Clear	< 1000 nM	< 1000 nM	< 1000 nM	< 1000 nM							
DNGYGYFAANIDLMMIEE [pep-010]		< 1000 nM	< 1000 nM	< 1000 nM		< 1000 nM	< 1000 nM	binds to at least the same alleles as peptide 041	< 1000 nM	binds to at least the same alleles as peptide 041	< 1000 nM	
CC[C@H](C)[C@H](NC(=O)CNC(=O)[C@@H](NC(=O)[C@@H](NC(=O)[C@@H](NC(=O)[C@H](C)NC(=O)[C@@H](NC(=O)[C@H](C)NC(=O)[C@H](CO)NC(=O)[C@H](Cc1c[nH]cn1)NC(=O)[C@@H](NC(=O)[C@H](CCC(N)=O)NC(=O)[C@H](C)NC(=O)[C@H](CC(C)C)NC(=O)[C@H](C)NC(=O)[C@H](CCC(=O)O)NC(=O)[C@@H](N)CCCNC(=N)N)[C@@H](C)O)[C@@H](C)CC)C(C)C)[C@@H](C)CC)[C@@H](C)CC)C(=O)N[C@@H](CCCCN)C(=O)N[C@@H](CC(=O)O)C(=O)N[C@@H](CC(C)C)C(=O)N[C@@H](CC(=O)O)C(=O)N[C@@H](C)C(=O)O [pep-130]		< 1000 nM	< 1000 nM		< 1000 nM	< 1000 nM			< 1000 nM			Slight turbid
HAVNIVGYSNAQGVDYWIVR [pep-058]			< 1000 nM		< 1000 nM	< 1000 nM	< 1000 nM		< 1000 nM			Slight turbid
LVGDNGVLASAIATHAKIRD [pep-110]		< 1000 nM							< 1000 nM			
GSGSSWAFSGVAATESAYLA [pep-044]		< 1000 nM	< 1000 nM	< 1000 nM	< 1000 nM	< 1000 nM	< 1000 nM				< 1000 nM	
